These results are taken from ChEMBL document CHEMBL5244219, “Recent developments of quinolone-based derivatives and their activities against Escherichia coli” (Eur J Med Chem, 2018).

≈ marks a conversion by molar mass, not a printed value.

What all share (format): functional
Test [1] has as its system Escherichia coli. The test can be described thus: Antibacterial activity against Escherichia coli assessed as bacterial growth inhibition measured after 24 hrs by broth micro dilution method.
The test system of test [2] is Escherichia coli. The test can be described thus: Antibacterial activity against Escherichia coli assessed as zone of inhibition at 500 to 1000 ug per disc. The following applies: dose 500-1000 µg.
Test [3] concerns Escherichia coli. The test can be described thus: Antibacterial activity against Escherichia coli assessed as bacterial growth inhibition incubated for 24 hrs by agar streak dilution method.
In test [4] the test system is Escherichia coli. The test can be described thus: Antibacterial activity against Escherichia coli ATCC 8739 assessed as bacterial growth inhibition incubated for 24 hrs by two-serial dilution method.
For test [5], the system named is Escherichia coli. The test can be described thus: Antibacterial activity against Escherichia coli MTCC 739 assessed as bacterial growth inhibition incubated for 24 hrs by spectrophotometric method.
Test [6] has as its system Escherichia coli. The test can be described thus: Antibacterial activity against Escherichia coli NIHJ JC-2 assessed as bacterial growth inhibition measured after 24 hrs by agar dilution method.
Test [7] deals with Escherichia coli. The test can be described thus: Antibacterial activity against Escherichia coli 2010-29 assessed as bacterial growth inhibition measured after 24 hrs by agar dilution method.
For test [8], the system named is Escherichia coli. The test can be described thus: Antibacterial activity against Escherichia coli NIHJ assessed as bacterial growth inhibition measured after 24 hrs by agar dilution method. (In general: In agar dilution the substance is mixed into plates at graded concentrations.)
Test [9] deals with Escherichia coli. The test can be described thus: Antibacterial activity against Escherichia coli 2010-05 assessed as bacterial growth inhibition measured after 24 hrs by agar dilution method.
The subject of test [10] is Escherichia coli. The test can be described thus: Antibacterial activity against Escherichia coli KC-14 infected in po dosed mouse assessed as bacterial growth inhibition. The following applies: Escherichia coli, KC-14, po, read-out: ED50.

On to `CCn1cc(C(=O)O)c(=O)c2cc(F)c(-n3cc(CO[C@H]4O[C@H](COC(C)=O)[C@@H](OC(C)=O)[C@H](OC(C)=O)[C@H]4OC(C)=O)nn3)c(F)c21`, for which the MIC (usually the lowest concentration that inhibits growth of the organism) with Escherichia coli [1] is above 6.25 µg/mL. Take `O=c1[nH]c2ccc(Cl)cc2c2c1cnn2Cc1ccccc1`: in the test on Escherichia coli [2], the “diameter of the inhibition zone (DIZ)” value was found to be 7 mm. With `O=C(O)c1cn(C2CC2)c2cc(N3CCN(C4SCC(=O)N4c4nc5ccc([N+](=O)[O-])cc5s4)CC3)c(F)cc2c1=O` (stereo not drawn), in the test on Escherichia coli [3], the MIC is 2 µg/mL (≈ 3.28 µM). On the same count and under the same terms, to `O=C(O)c1cn(C2CC2)c2cc(N3CCN(C4SCC(=O)N4c4nc5ccc(Br)cc5s4)CC3)c(F)cc2c1=O` (stereo not drawn) belongs 2 µg/mL (≈ 3.1 µM). As for `O=c1[nH]c2ccccc2c2c1cnn2Cc1ccccc1`, in the test with Escherichia coli [2], the “diameter of the inhibition zone (DIZ)” value came to 7 mm. As to `CCn1cc(C(=O)O)c(=O)c2cc(F)c(-n3cc(CO[C@H]4O[C@H](COC(C)=O)[C@H](OC(C)=O)[C@H](OC(C)=O)[C@H]4OC(C)=O)nn3)c(F)c21`, the MIC in the test on Escherichia coli [1] was above 6.25 µg/mL.

`Cc1ccc(-c2nc3c(F)cc4c(=O)c(C(=O)O)cn(C5CC5)c4c3[nH]2)cc1`: the MIC with Escherichia coli [4] is above 3 µg/mL. For `Cn1c(=O)c(C(=O)/C=C/c2ccco2)c(O)c2ccccc21`, in the test on Escherichia coli [2], the “diameter of the inhibition zone (DIZ)” value is on record as 7 mm.

Turning to `COc1ccc2nc(N3C(=O)CSC3N3CCN(c4cc5c(cc4F)c(=O)c(C(=O)O)cn5C4CC4)CC3)sc2c1` (stereo not drawn), the MIC with Escherichia coli [3] came to 2 µg/mL (≈ 3.36 µM). As for `O=C(O)c1cn(C2CC2)c2c(cc(F)c3nc(-c4cccs4)[nH]c32)c1=O`, in the test on Escherichia coli [4], the MIC was above 3 µg/mL.

Regarding `O=C(O)c1cn(C2CC2)c2c(cc(F)c3nc(-c4ccsc4)[nH]c32)c1=O`, the MIC in the test on Escherichia coli [4] is above 3 µg/mL. Consider `CCn1cc(C(=O)O)c(=O)c2cc(F)c(N3CCN(C4SCC(=O)N4c4nc5ccc(NC(C)=O)cc5s4)CC3)cc21` (stereo not drawn), for which the MIC in the test on Escherichia coli [3] is 2 µg/mL (≈ 3.27 µM). In the case of `O=C(O)c1cn(C2CC2)c2c(cc(F)c3nc(-c4ccccn4)[nH]c32)c1=O`, the MIC in the test on Escherichia coli [4] is above 3 µg/mL. Still for that read-out and setting: to `O=C(O)c1cn(C2CC2)c2c(cc(F)c3nc(-c4ccco4)[nH]c32)c1=O` belongs above 3 µg/mL.

On to `CCn1cc(C(=O)O)c(=O)c2cc(F)c(-n3cc(CO[C@H]4O[C@H](COC(C)=O)[C@@H](OC(C)=O)[C@H](OC(C)=O)[C@H]4NC(C)=O)nn3)c(F)c21`, for which the MIC in the test with Escherichia coli [1] is above 6.25 µg/mL. As to `Cn1c(=O)cc(OCc2nn(CN3CCN(c4ccccc4F)CC3)c(=S)o2)c2ccccc21`, the MIC in the test with Escherichia coli [5] amounted to 25 µg/mL (≈ 51.9 µM). As to `CNC1CN(c2c(F)c(C)c3c(=O)c(C(=O)O)cn(-c4cc(N)c(F)cc4CO)c3c2Cl)C1`, the MIC worked out at 0.008 µg/mL (≈ 0.0167 µM) in the test on Escherichia coli [6], 1 µg/mL (≈ 2.09 µM) in the test on Escherichia coli [7], 0.008 µg/mL (≈ 0.0167 µM) in the test with Escherichia coli [8] and 1 µg/mL (≈ 2.09 µM) in the test on Escherichia coli [9].

For the compound `O=C(O)c1cn(C2CC2)c2c(cc(F)c3nc(-c4ccccc4)[nH]c32)c1=O`, the MIC in the test on Escherichia coli [4] is above 3 µg/mL.

Take `Cn1c(=O)cc(OCc2nn(CN3CCN(c4ccc(F)cc4)CC3)c(=S)o2)c2ccccc21`: the MIC in the test on Escherichia coli [5] is 25 µg/mL (≈ 51.9 µM). Same read-out and setting: the value for `Cn1c(=O)cc(OCc2nn(CN3CCN(c4ccccc4F)CC3)c(=S)s2)c2ccccc21` was 25 µg/mL (≈ 50.2 µM). Take `CCn1cc(C(=O)O)c(=O)c2cc(F)c(-n3cc(CO[C@H]4OC[C@@H](OC(C)=O)[C@@H](OC(C)=O)[C@H]4OC(C)=O)nn3)c(F)c21`: in the test with Escherichia coli [1], the MIC is above 6.25 µg/mL. As to `CCn1c(=O)c(C(=O)/C=C/c2cccs2)c(O)c2ccccc21`, the “diameter of the inhibition zone (DIZ)” value with Escherichia coli [2] is on record as 7 mm. For `CCn1cc(C(=O)O)c(=O)c2cc(F)c(N3CCN(C4SCC(=O)N4c4nc5ccc(F)cc5s4)CC3)cc21` (stereo not drawn), in the test on Escherichia coli [3], the MIC was 2 µg/mL (≈ 3.5 µM). `O=C(O)c1cn(C2CC2)c2c(cc(F)c3nc(-c4ccc(F)cc4)[nH]c32)c1=O`: the MIC in the test with Escherichia coli [4] is above 3 µg/mL. `Cn1c(=O)cc(OCc2nn(CN3CCN(c4ccc(C(F)(F)F)cc4)CC3)c(=S)s2)c2ccccc21`: in the test on Escherichia coli [5], the MIC was determined as 25 µg/mL (≈ 45.7 µM). `CC1(N)CN(c2c(F)cc3c(=O)c(C(=O)O)cn(-c4cc(N)c(F)cc4CO)c3c2Cl)C1`: the MIC was 0.008 µg/mL (≈ 0.0172 µM) in the test on Escherichia coli [6], 1 µg/mL (≈ 2.15 µM) in the test with Escherichia coli [7], 0.008 µg/mL (≈ 0.0172 µM) in the test on Escherichia coli [8] and 1 µg/mL (≈ 2.15 µM) in the test with Escherichia coli [9].

As for `COc1ccc2[nH]c(=O)c3cnn(Cc4ccccc4)c3c2c1`, the “diameter of the inhibition zone (DIZ)” value with Escherichia coli [2] is given as 7 mm. On to `CCOc1ccc2nc(N3C(=O)CSC3N3CCN(c4cc5c(cc4F)c(=O)c(C(=O)O)cn5CC)CC3)sc2c1` (stereo not drawn), for which, in the test with Escherichia coli [3], the MIC came out at 2 µg/mL (≈ 3.35 µM). Turning to `N#Cc1ccc2nc(N3C(=O)CSC3N3CCN(c4cc5c(cc4F)c(=O)c(C(=O)O)cn5C4CC4)CC3)sc2c1` (stereo not drawn), in the test with Escherichia coli [3], the MIC is 2 µg/mL (≈ 3.39 µM). As for `CCOC(=O)c1c2n(c3cc(N4CCN(C(C)=O)CC4)c(F)cc3c1=O)C(C)S2` (stereo not drawn), the ED50 (commonly the dose at which the effect has come halfway, by size or by number of responders) in the test with Escherichia coli [10] is 0.89 mg/kg. On to `CCn1cc(C(=O)O)c(=O)c2cc(F)c(N3CCN(C4SCC(=O)N4c4nc5ccc([N+](=O)[O-])cc5s4)CC3)cc21` (stereo not drawn), for which the MIC in the test on Escherichia coli [3] was 2 µg/mL (≈ 3.34 µM).

Consider `CCn1cc(C(=O)O)c(=O)c2cc(F)c(N3CCN(C4SCC(=O)N4c4nc5ccc(Br)cc5s4)CC3)cc21` (stereo not drawn), for which the MIC in the test on Escherichia coli [3] is 2 µg/mL (≈ 3.16 µM).
